Measurements from paper PMC6857051, “Proliferative regulation of alveolar epithelial type 2 progenitor cells by human Scnn1d gene” (Theranostics, 2019).
Where two headings read alike, the source gives them in different places.

Biological target: T1, human δ802βγ ENaC (Homo sapiens, UniProt P51168+P51170+P51172)
T1 construct: Bioelectric features of full-length human δ802 epithelial sodium channels (ENaC) in Xenopus oocytes; expressed in transfected cells; host or cells: Xenopus laevis oocytes injected with cRNA (pGEM HE vector)
T1 sequence (P51172 1-802): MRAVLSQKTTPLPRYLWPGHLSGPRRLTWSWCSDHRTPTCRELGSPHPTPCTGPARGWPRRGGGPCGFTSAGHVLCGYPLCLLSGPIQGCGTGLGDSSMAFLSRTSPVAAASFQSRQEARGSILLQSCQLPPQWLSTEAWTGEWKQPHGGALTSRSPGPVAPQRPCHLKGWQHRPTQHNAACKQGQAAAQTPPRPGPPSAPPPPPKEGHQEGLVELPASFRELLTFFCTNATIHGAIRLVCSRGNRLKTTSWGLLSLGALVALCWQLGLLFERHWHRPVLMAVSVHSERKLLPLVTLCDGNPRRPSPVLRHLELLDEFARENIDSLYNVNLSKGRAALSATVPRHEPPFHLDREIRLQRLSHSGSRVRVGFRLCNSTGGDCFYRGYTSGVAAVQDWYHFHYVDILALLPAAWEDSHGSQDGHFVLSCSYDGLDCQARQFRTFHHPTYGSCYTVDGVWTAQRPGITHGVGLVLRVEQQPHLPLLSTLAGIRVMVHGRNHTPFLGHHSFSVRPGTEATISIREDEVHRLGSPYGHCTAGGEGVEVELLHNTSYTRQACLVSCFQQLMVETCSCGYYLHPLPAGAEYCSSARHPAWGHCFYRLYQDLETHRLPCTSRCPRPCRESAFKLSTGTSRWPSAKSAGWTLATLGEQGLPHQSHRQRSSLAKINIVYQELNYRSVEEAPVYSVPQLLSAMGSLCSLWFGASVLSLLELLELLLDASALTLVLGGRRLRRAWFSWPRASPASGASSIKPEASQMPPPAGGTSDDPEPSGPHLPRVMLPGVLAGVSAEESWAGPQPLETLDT
T1 sequence (P51168 1-640): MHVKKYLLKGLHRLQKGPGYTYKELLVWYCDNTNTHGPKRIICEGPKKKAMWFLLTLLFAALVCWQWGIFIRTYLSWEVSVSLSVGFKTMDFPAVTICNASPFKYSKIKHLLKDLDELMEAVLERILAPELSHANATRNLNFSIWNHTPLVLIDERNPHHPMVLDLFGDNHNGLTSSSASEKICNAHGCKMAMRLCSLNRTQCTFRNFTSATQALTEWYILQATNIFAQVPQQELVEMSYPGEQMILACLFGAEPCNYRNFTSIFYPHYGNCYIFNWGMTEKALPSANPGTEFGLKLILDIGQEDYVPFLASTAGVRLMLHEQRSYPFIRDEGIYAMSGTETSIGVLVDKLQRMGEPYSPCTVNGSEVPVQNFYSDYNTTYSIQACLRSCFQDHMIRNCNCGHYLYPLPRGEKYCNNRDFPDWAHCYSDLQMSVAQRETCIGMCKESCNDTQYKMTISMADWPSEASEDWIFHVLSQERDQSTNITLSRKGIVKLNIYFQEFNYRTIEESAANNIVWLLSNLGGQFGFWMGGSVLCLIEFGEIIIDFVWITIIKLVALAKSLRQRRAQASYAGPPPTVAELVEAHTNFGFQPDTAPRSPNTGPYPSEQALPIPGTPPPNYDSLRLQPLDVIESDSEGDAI
T1 sequence (P51170 1-649): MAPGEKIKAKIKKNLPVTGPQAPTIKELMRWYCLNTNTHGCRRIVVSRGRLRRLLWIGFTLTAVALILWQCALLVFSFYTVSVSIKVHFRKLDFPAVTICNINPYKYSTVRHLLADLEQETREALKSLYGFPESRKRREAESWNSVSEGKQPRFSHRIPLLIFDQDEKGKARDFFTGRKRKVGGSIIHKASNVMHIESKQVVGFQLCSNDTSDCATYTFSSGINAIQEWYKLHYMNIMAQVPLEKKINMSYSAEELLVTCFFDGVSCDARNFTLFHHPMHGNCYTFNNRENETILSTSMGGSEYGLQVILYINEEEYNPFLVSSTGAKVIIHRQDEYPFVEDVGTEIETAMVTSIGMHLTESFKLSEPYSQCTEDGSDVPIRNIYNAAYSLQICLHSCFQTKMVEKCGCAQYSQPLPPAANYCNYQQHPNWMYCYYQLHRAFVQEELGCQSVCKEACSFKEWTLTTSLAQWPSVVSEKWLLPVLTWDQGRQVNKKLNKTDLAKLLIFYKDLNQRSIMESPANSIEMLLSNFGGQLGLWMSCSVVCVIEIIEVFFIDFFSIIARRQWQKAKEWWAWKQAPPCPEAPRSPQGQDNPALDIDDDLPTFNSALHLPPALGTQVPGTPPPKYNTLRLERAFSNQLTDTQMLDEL
Experiment: Two-electrode voltage clamp of δ802βγ-ENaC expressed in Xenopus oocytes
Format: cell-based
Experimental: Cloning, in vitro transcription, and heterologous expression of δ802 ENaC and two-electrode voltage clamping assay. δ802 and other ENaC subunits were generated in human ENaC cDNAs cloned into a pGEM HE vector [4], [76]. cRNAs of human α, β, and γ ENaC were prepared as described previously. The stoichiometry of native ENaC complexes is unclear to date. Based on the studies in the last decade, several models have been proposed for αβγ ENaC channels: 1α1β1γ, 2α1β1γ, 3α3β3γ. Based on the EM structure of human αβγ ENaC [35], the currently acceptable model of human αβγ ENaC complexes is heterotrimeric (1α1β1γ). Thus we microinjected δ802:β:γ in a 1:1:1 subunit ratio. Oocytes were surgically removed from appropriately anesthetized adult female Xenopus laevis (Xenopus Express). Briefly, the ovarian tissue was removed from the frog under anesthesia by tricaine-S (Western Chemicals) through a small incision in the lower abdomen. Ovarian lobes were removed and digested in OR-2 calcium-free medium (in mM: 82.5 NaCl, 2.5 KCl, 1.0 MgCl2, 1.0 Na2HPO4, and 10.0 HEPES, pH 7.5) with the addition of 2 mg/ml collagenase (Roche, Indianapolis). Defolliculated oocytes were injected with ENaC cRNAs into the cytosol (25 ng per oocyte in 50 nl of RNase-free water) and incubated in regular OR-2 medium at 18°C. The two-electrode voltage-clamp technique was used to record whole-cell currents 48 h post injection. Oocytes were impaled with two electrodes filled with 3M KCl, having resistance of 0.5 - 2 MΩ. A TEV-200A voltage-clamp amplifier (Dagan) was used to clamp oocytes with concomitant recording of currents. Two reference electrodes were connected to the bath. The continuously perfused bathing solution was ND-96 medium (in mM: 96.0 NaCl, 1.0 MgCl2, 1.8 CaCl2, 2.5 KCl, and 5.0 HEPES, pH 7.5). Whole-cell currents were recorded as previously reported. Experiments were controlled by pCLAMP 10.7 software (Molecular Devices), and currents at -40 mV, -100 mV, and +80 mV were continuously monitored with data recorded at intervals of 10 sec. Data were sampled at the rate of 200 Hz and filtered at 50 Hz.

`N=C(N)NC(=O)c1nc(Cl)c(N)nc1N` [amiloride] was tested, and the IC50 (accumulating doses perfused to oocytes expressing δ802βγ-ENaC, n=17, mean ± s.e.m., SEM, read-out: IC50 value, dose-response curve fitted with the Hill equation) was 1690 ± 300 nM.

In the case of Ac-LRGTLPHPLQRLR-NH2 [α-13 peptide], the “effect on δ802βγ-ENaC activity” value (300 μM, -100 mV, n=5) is reported as “slightly elevated” and the IC50 (oocytes, current at -100 mV, n=3, Chi^2 = 0.77, R^2 = 0.86, legend prints δ802βγ, read-out: IC50, dotted line (for δ802βγ) (Hill equation)) is reported as 40 ± 70 nM.

B1: plasmin: serine protease of the plasmin(ogen) signal pathway for fibrinolysis (protein, UniProt P00747 20-580; P00747 581-810, looked up)
Plasmin heavy chain A: EPLDDYVNTQGASLFSVTKKQLGAGSIEECAAKCEEDEEFTCRAFQYHSKEQQCVIMAENRKSSIIIRMRDVVLFEKKVYLSECKTGNGKNYRGTMSKTKNGITCQKWSSTSPHRPRFSPATHPSEGLEENYCRNPDNDPQGPWCYTTDPEKRYDYCDILECEEECMHCSGENYDGKISKTMSGLECQAWDSQSPHAHGYIPSKFPNKNLKKNYCRNPDRELRPWCFTTDPNKRWELCDIPRCTTPPPSSGPTYQCLKGTGENYRGNVAVTVSGHTCQHWSAQTPHTHNRTPENFPCKNLDENYCRNPDGKRAPWCHTTNSQVRWEYCKIPSCDSSPVSTEQLAPTAPPELTPVVQDCYHGDGQSYRGTSSTTTTGKKCQSWSSMTPHRHQKTPENYPNAGLTMNYCRNPDADKGPWCFTTDPSVRWEYCNLKKCSGTEASVVAPPPVVLLPDVETPSEEDCMFGNGKGYRGKRATTVTGTPCQDWAAQEPHRHSIFTPETNPRAGLEKNYCRNPDGDVGGPWCYTTNPRKLYDYCDVPQCAAPSFDCGKPQVEPKKCPGR
Plasmin light chain B: VVGGCVAHPHSWPWQVSLRTRFGMHFCGGTLISPEWVLTAAHCLEKSPRPSSYKVILGAHQEVNLEPHVQEIEVSRLFLEPTRKDIALLKLSSPAVITDKVIPACLPSPNYVVADRTECFITGWGETQGTFGAGLLKEAQLPVIENKVCNRYEFLNGRVQSTELCAGHLAGGTDSCQGDSGGPLVCFEKDKYILQGVTSWGLGCARPNKPGVYVRVSRFVTWIEGVMRNN
modifications: Plasmin
notes: serine protease of the plasmin(ogen) signal pathway for fibrinolysis
For B1, the “effect of serine protease incubation on δ802βγ activity” value (oocytes, -100 mV, tc-uPA 10 μg/ml, time course in minutes) was “activated the δ802βγ activity in minutes”.
